Values quoted from earlier work as cited in patent US20140073699A1, “Combination Therapies for the Treatment of Obesity” (Metabolous Pharmaceuticals, Inc., priority 2009, published 2014).

Details: literature studies

Structure (SMILES)	weight loss of body weight for drug compared with placebo
CCN[C@@H](C)Cc1cccc(C(F)(F)F)c1 [dexfenfluramine]	about 5%
CCCCCCCCCCC[C@@H](C[C@@H]1OC(=O)[C@H]1CCCCCC)OC(=O)[C@H](CC(C)C)NC=O [orlistat]	about 5%
CC(C)CC(N(C)C)C1(c2ccc(Cl)cc2)CCC1 (stereo not drawn) [sibutramine]	about 5%
